In patent US10166210B2, “Methods of subtyping CRC and their association with treatment of colon cancer patients with oxaliplatin” (NSABP Foundation, Inc., priority 2014, dated 2019):

Experiments:
[1] = system: stage II and III colon cancer, CRC subtypes; experiment: C-07 discovery cohort: oxaliplatin benefit by CRC intrinsic subtype (CRC-SSP-72), Kaplan Meier analysis; format: in vivo, human
Excerpt: FIG. 3 Kaplan Meier Plots of each CRC subtype using our gene signature by CRC-SSP-72 according to treatment (FULV versus FOLFOX) using recurrence free survival (RFS) as the end point. Among identified CRC subtypes, only Enterocyte received significant benefit (HR=0.315, p=0.005).
FIG. 4 Kaplan Meier Plots of the Enterocyte subtype and of all of the other subtypes (Goblet-like, Inflammatory, Stem-like and TA) combined into one group (Others) There is significant treatment-group interaction (p=0.012)
We have profiled 296 genes in 1840 patients using the nCounter Assay system (Nanostring Technologies, Seattle Wash.). Clinical data and nCounter data for the discovery dataset were merged and anonymized by the honest broker at the University of Pittsburgh as defined by standard operations under IRB approval of NSABP Biospecimen Bank and Biostatistics Center. We have developed a predictive algorithm to classify tumors into oxaliplatin benefit or no benefit group using discovery cohort of 848 patients without access to the data from the remaining 992 patients (validation cohort).
For C07, 2409 patients were enrolled in C-07 and all cases with tumor blocks, proper consent, clinical follow-up information and sufficient RNA yields were used in this study (N=1840). These cases were split into a discovery (N=848) and a validation (N=992) cohort (FIG. 1). […]

[2] = system: stage II and III colon adenocarcinoma; conditions: oxaliplatin added to FU and LV; trials MOSAIC and C-07; cited from earlier work
early-stage colon cancer = conditions: recent MOSAIC analysis; all stage II or high risk stage II patients; cited from earlier work

O=C1[O][Pt]2([NH][C@@H]3CCCC[C@H]3[NH]2)[O]C1=O [oxaliplatin]
recurrence free survival (RFS) HR ([1]; Enterocyte subtype, FULV versus oxaliplatin arm, p=0.005): 0.315
benefit from oxaliplatin by subtype ([1]; enterocyte subtype versus TA, goblet, inflammatory and stem-like, treatment-group interaction p=0.012): only the enterocyte subtype received benefit
disease free survival (DFS) [2]: significantly improved disease free survival
benefit in stage II patients (early-stage colon cancer): no statistically significant benefit
